Measured values reported in patent publication US12643885B2, “KRAS G12D protein inhibitors” (TAIHO PHARMACEUTICAL CO., LTD., priority 2020, dated 2026).

Each compound was assayed against T1, KRAS G12D (Homo sapiens, UniProt P01116, G12D) (assay: Inhibitory activity on KRAS G12D nucleotide (GDP-GTP) exchange reaction in vitro (SOS1-dependent, BODIPY FL GDP)). Settings: BODIPY FL GDP-bound recombinant KRAS G12D, 25° C. 1 hour preincubation, then SOS1 and GMPPNP 30 minutes at room temperature.
T1 construct: made in house; host or cells: Escherichia coli BL21 (DE3), pET28a
T1 sequence (P01116 with tags, fused parts or gaps isoform P01116-2 G12D): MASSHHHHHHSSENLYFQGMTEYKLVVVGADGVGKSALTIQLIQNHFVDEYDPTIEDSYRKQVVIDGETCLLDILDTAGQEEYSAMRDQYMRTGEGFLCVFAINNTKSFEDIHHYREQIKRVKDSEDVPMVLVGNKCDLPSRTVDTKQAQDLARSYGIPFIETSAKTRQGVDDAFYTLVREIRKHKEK
Format: biochemical
Excerpt: Test Example: Evaluation of Inhibitory Activity of Compounds of Examples 1-21 on KRAS G12D Nucleotide (GDP-GTP) Exchange Reaction In Vitro
Recombinant KRAS G12D (conjugated N-terminus His6-tag, TEV protease cleavage site and KRAS G12D residues 1-169 (SEQ ID NO: 1), prepared by the method described below) and cleaved recombinant SOS1 (residues 564-1049 (SEQ ID NO: 2), prepared by the method described below) proteins were expressed in E. coli and purified by affinity chromatography.
To prepare BODIPY FL (fluorescent dye) GDP-bound KRAS G12D protein, 50 μM KRAS G12D protein was incubated with 0.5 mM BODIPY FL GDP in a loading buffer (20 mM Tris-HCl (pH 7.5), 50 mM NaCl, 1 mM DTT and 2.5 mM EDTA) for 1 hour on ice. After the incubation, MgCl2 was added to a final concentration of 10 mM, followed by incubation at room temperature for 30 minutes.
The mixture was allowed to pass through a NAP-5 column to remove free nucleotides, and purified BODIPY FL GDP-bound KRAS G12D protein was used for compound evaluation.
For the measurement of the inhibitory activity of compounds on GDP-GTP exchange rate of recombinant KRAS G12D, BODIPY FL GDP-bound KRAS G12D protein was incubated with various concentrations of compounds of Formula (I), i.e., compounds of Examples 1-21, in a reaction buffer (20 mM Tris-HCl (pH 7.5), 100 mM NaCl, 1 mM MgCl2, 2 mM DTT, 0.1% Tween 20) at 25° C. for 1 hour.
After the incubation, recombinant SOS1 and GMPPNP (guanosine-5′-[(β,γ)-imido]triphosphate, tetralithium salt) (Jena Bioscience GmbH, Jena, Germany) were added and incubated at room temperature for 30 minutes to proceed SOS1-dependent GDP-GTP exchange reaction on KRAS G12D. Replacement of BODIPY FL GDP by GMPPNP was measured by calculating the ratio of fluorescence intensities of BODIPY FL before and after the exchange reaction.
Inhibition % was calculated by setting the fluorescence ratio from the reaction without test compound (DMSO control) and the fluorescence ratio from the reaction without SOS1 and GMPPNP as 0% and 100% inhibition, respectively. IC50 values were calculated from a dose titration curve using curve fitting by XLfit software (IDBS, Boston, Massachusetts, US).

IC50 [µM]	Compound
43.7	C[C@@H]1NC[C@H]1N(C)C(=O)c1c(Cl)nc(CNc2n[nH]c3cc(Cl)c(C(C)(C)C)cc23)n1C (relative stereo) [Example 11]
17.1	C[C@H]1CNC[C@@H]1N(C)C(=O)c1c(Cl)nc(CNc2n[nH]c3cc(Cl)c(C(C)(C)C)cc23)n1C (relative stereo) [Example 13, 2-(((5-(tert-butyl)-6-chloro-1H-indazol-3-yl)amino)methyl)-4-chloro-N,1-dimethyl-N-(trans-4-methylpyrrolidin-3-yl)-1H-imidazole-5-carboxamide]
43.1	C[C@@H]1CNC[C@@H]1N(C)C(=O)c1c(Cl)nc(CNc2n[nH]c3cc(Cl)c(C(C)(C)C)cc23)n1C (relative stereo) [Example 14, 2-(((5-(tert-butyl)-6-chloro-1H-indazol-3-yl)amino)methyl)-4-chloro-N,1-dimethyl-N-(cis-4-methylpyrrolidin-3-yl)-1H-imidazole-5-carboxamide]
20.7	CN(C(=O)c1c(Cl)nc(CNc2n[nH]c3cc(Cl)c(C(C)(C)C)cc23)n1C)C1CNC1 [Example 1, N-(azetidin-3-yl)-2-(((5-(tert-butyl)-6-chloro-1H-indazol-3-yl)amino)methyl)-4-chloro-N,1-dimethyl-1H-imidazole-5-carboxamide]
12.4	CN(C(=O)c1c(Cl)nc(CNc2n[nH]c3cc(Cl)c(C(C)(C)C)cc23)n1C)[C@H]1CCNC1 [Example 2, (S)-2-(((5-(tert-butyl)-6-chloro-1H-indazol-3-yl)amino)methyl)-4-chloro-N,1-dimethyl-N-(pyrrolidin-3-yl)-1H-imidazole-5-carboxamide]
18.7	CN(C(=O)c1c(Cl)nc(CNc2n[nH]c3cc(Cl)c(C(C)(C)C)cc23)n1C)[C@@H]1CCNC1 [Example 3, (R)-2-(((5-(tert-butyl)-6-chloro-1H-indazol-3-yl)amino)methyl)-4-chloro-N,1-dimethyl-N-(pyrrolidin-3-yl)-1H-imidazole-5-carboxamide]
38	Cn1c(CNc2n[nH]c3cc(Cl)c(C(C)(C)C)cc23)nc(Cl)c1C(=O)N1CCCNCC1 [Example 4, (2-(((5-(tert-butyl)-6-chloro-1H-indazol-3-yl)amino)methyl)-4-chloro-1-methyl-1H-imidazol-5-yl)(1,4-diazepan-1-yl)methanone]
1.3	CC(C)N1CC[C@@H](n2c(CNc3n[nH]c4cc(Cl)c(C(C)(C)C)cc34)nc(Cl)c2C(=O)N(C)[C@@H]2CCNC2)C1 [Example 5, 2-(((5-(tert-butyl)-6-chloro-1H-indazol-3-yl)amino)methyl)-4-chloro-1-((R)-1-isopropylpyrrolidin-3-yl)-N-methyl-N-((R)-pyrrolidin-3-yl)-1H-imidazole-5-carboxamide]
3.8	CC(C)N1CC[C@@H](n2c(CNc3n[nH]c4cc(Cl)c(C(C)(C)C)cc34)nc(Cl)c2C(=O)N(C)C2CNC2)C1 [Example 6, (R)-N-(azetidin-3-yl)-2-(((5-(tert-butyl)-6-chloro-1H-indazol-3-yl)amino)methyl)-4-chloro-1-(1-isopropylpyrrolidin-3-yl)-N-methyl-1H-imidazole-5-carboxamide]
43.5	CN(CCN)C(=O)c1c(Cl)nc(CNc2n[nH]c3cc(Cl)c(C(C)(C)C)cc23)n1C [Example 7, N-(2-aminoethyl)-2-(((5-(tert-butyl)-6-chloro-1H-indazol-3-yl)amino)methyl)-4-chloro-N,1-dimethyl-1H-imidazole-5-carboxamide]
35.3	CC(C)N1CC[C@@H](n2c(CNc3n[nH]c4cc(Cl)c(C(C)(C)C)cc34)nc(Cl)c2C(=O)N(C)CCN)C1 [Example 8, (R)-N-(2-aminoethyl)-2-(((5-(tert-butyl)-6-chloro-1H-indazol-3-yl)amino)methyl)-4-chloro-1-(1-isopropylpyrrolidin-3-yl)-N-methyl-1H-imidazole-5-carboxamide]
33.5	CC[C@@H]1CNC[C@@H]1N(C)C(=O)c1c(Cl)nc(CNc2n[nH]c3cc(Cl)c(C(C)(C)C)cc23)n1C [Example 9, 2-(((5-(tert-butyl)-6-chloro-1H-indazol-3-yl)amino)methyl)-4-chloro-N-((3R,4R)-4-ethylpyrrolidin-3-yl)-N,1-dimethyl-1H-imidazole-5-carboxamide]
46.9	CN(C(=O)c1c(Cl)nc(CNc2n[nH]c3cc(Cl)c(C(C)(C)C)cc23)n1C)[C@@H]1CNCC12CC2 [Example 10, (S)-2-(((5-(tert-butyl)-6-chloro-1H-indazol-3-yl)amino)methyl)-4-chloro-N,1-dimethyl-N-(5-azaspiro[2.4]heptan-7-yl)-1H-imidazole-5-carboxamide]
38.2	CN[C@H]1C[C@@H]1N(C)C(=O)c1c(Cl)nc(CNc2n[nH]c3cc(Cl)c(C(C)(C)C)cc23)n1C [Example 12, 2-(((5-(tert-butyl)-6-chloro-1H-indazol-3-yl)amino)methyl)-4-chloro-N,1-dimethyl-N-((1S,2S)-2-(methylamino)cyclopropyl)-1H-imidazole-5-carboxamide]
32.9	CN(C(=O)c1c(Cl)nc(CNc2cc(C(C)(C)C)c(Cl)cc2O)n1C)[C@@H]1CCNC1 [Example 15, (R)-2-(((5-(tert-butyl)-4-chloro-2-hydroxyphenyl)amino)methyl)-4-chloro-N,1-dimethyl-N-(pyrrolidin-3-yl)-1H-imidazole-5-carboxamide]
26.2	CN(C(=O)c1c(Cl)nc(CNc2cc(C(C)(C)C)c(Cl)cc2O)n1C)[C@H]1CCNC1 [Example 16, (S)-2-(((5-(tert-butyl)-4-chloro-2-hydroxyphenyl)amino)methyl)-4-chloro-N,1-dimethyl-N-(pyrrolidin-3-yl)-1H-imidazole-5-carboxamide]
12	CN(C(=O)c1c(Cl)nc(CNc2cc(C(C)(C)C)c(Cl)cc2O)n1C)C1CNC1 [Example 17, N-(azetidin-3-yl)-2-(((5-(tert-butyl)-4-chloro-2-hydroxyphenyl)amino)methyl)-4-chloro-N,1-dimethyl-1H-imidazole-5-carboxamide]
1.6	CC(C)N1CC[C@@H](n2c(CNc3cc(C(C)(C)C)c(Cl)cc3O)nc(Cl)c2C(=O)N(C)[C@@H]2CCNC2)C1 [Example 18, 2-(((5-(tert-butyl)-4-chloro-2-hydroxyphenyl)amino)methyl)-4-chloro-1-((R)-1-isopropylpyrrolidin-3-yl)-N-methyl-N-((R)-pyrrolidin-3-yl)-1H-imidazole-5-carboxamide]
3.7	CC(C)N1CC[C@@H](n2c(CNc3cc(C(C)(C)C)c(Cl)cc3O)nc(Cl)c2C(=O)N(C)[C@H]2CCNC2)C1 [Example 19, 2-(((5-(tert-butyl)-4-chloro-2-hydroxyphenyl)amino)methyl)-4-chloro-1-((R)-1-isopropylpyrrolidin-3-yl)-N-methyl-N-((S)-pyrrolidin-3-yl)-1H-imidazole-5-carboxamide]
3.2	CC(C)N1CC[C@@H](n2c(CNc3cc(C(C)(C)C)c(Cl)cc3O)nc(Cl)c2C(=O)N(C)C2CNC2)C1 [Example 20, (R)-N-(azetidin-3-yl)-2-(((5-(tert-butyl)-4-chloro-2-hydroxyphenyl)amino)methyl)-4-chloro-1-(1-isopropylpyrrolidin-3-yl)-N-methyl-1H-imidazole-5-carboxamide]
31.5	CN(C(=O)c1c(Cl)nc(CNc2n[nH]c3cc(Cl)c(C(C)(C)C)cc23)n1C)C1CCNC1 (stereo not drawn) [Example 21, 2-(((5-(tert-butyl)-6-chloro-1H-indazol-3-yl)amino)methyl)-4-chloro-N,1-dimethyl-N-(pyrrolidin-3-yl)-1H-imidazole-5-carboxamide]
